Measurements reported in ChEMBL document CHEMBL4602620, “N,O-Dialkyl deoxynojirimycin derivatives as CERT START domain ligands” (Bioorg Med Chem Lett, 2020).

Legend:
[1] = target: T1, Ceramide transfer protein (Homo sapiens) (UniProt Q9Y5P4); assay: Displacement of fluorescent tagged ceramide from immobilized His-tagged CERT START domain (unknown origin) assessed as reduction in residual fluorescence activity by FLINT assay relative to control; design: concentration or dose not given beside the values; details: concentration not given here
T1 sequence (whole entry): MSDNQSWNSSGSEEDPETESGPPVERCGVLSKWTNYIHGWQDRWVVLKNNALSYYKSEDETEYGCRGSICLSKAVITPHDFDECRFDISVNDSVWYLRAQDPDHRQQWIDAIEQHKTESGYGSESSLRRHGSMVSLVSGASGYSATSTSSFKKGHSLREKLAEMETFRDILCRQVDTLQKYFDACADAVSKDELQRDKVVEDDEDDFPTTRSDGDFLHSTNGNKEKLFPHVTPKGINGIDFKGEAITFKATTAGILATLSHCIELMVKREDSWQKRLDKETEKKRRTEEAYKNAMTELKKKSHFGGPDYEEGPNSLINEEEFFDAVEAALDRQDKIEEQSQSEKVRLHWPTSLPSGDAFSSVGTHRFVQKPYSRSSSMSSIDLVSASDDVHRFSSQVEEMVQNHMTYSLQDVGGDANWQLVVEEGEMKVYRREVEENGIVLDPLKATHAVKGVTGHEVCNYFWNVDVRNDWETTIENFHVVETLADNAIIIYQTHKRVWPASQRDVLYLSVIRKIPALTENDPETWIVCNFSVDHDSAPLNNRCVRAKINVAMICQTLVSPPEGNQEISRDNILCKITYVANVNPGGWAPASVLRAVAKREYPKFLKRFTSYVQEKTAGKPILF

Saccharomyces cerevisiae = assay: Inhibition of Saccharomyces cerevisiae alpha-glucosidase at 0.2 mM relative to control
Prunus dulcis = assay: Inhibition of almond beta-glucosidase at 0.2 mM relative to control
Aspergillus niger = assay: Inhibition of Aspergillus niger amyloglucosidase at 0.2 mM relative to control

Row | inhibition [1] | inhibition (Saccharomyces cerevisiae) | inhibition (Prunus dulcis) | inhibition (Aspergillus niger) | SMILES
1 | 40% | 5.1% | 0.65% | 6% | CCCCCCCCCCCCO[C@H]1CN(CCCCCCCCCCCC)[C@H](CO)[C@@H](O)[C@@H]1O
2 | 25% | 13% | 39% | 88% | CCCCCCCCCCCCN1C[C@H](O)[C@@H](O)[C@H](O)[C@H]1CO

Continued, compound first:

Row | SMILES | inhibition [1] | inhibition (Saccharomyces cerevisiae) | inhibition (Prunus dulcis) | inhibition (Aspergillus niger)
3 | CCCCCCCCCCCCO[C@H]1[C@H](O)[C@@H](O)CN(CCCCCCCCCCCC)[C@@H]1CO | 20% | 7.3% | 1.7% | 11%
4 | CCCCCCCCCCCCC/C=C/[C@@H](O)[C@H](CO)NC(=O)CCCCCCCCCCCCCCC | 25% |  |  | 
5 | CCCCCCCCCCCC(=O)N[C@@H](CO)C[C@H](O)c1ccccc1 | 25% |  |  | 
6 | CCCCCCCCCCCCO[C@H]1CN(CCCCCCCCCCCC)C[C@@H](O)[C@@H]1O | 25% |  |  | 
